Results as given in ChEMBL document CHEMBL2021800, “Aberrant cyclization affords a C-6 modified cyclic adenosine 5'-diphosphoribose analogue with biological activity in Jurkat T cells” (J Med Chem, 2012).
The source made the active and inactive calls. The calls are words filed in the database; no cut-off is given here.

Tests used:
Format in all cases: functional, cell-based
Jurkat [1] = assay: Inhibition of N1-cIDPR-induced Ca2+ release in human Jurkat T cells using fluo-3 dye by spectrofluorometry analysis
Jurkat [2] = assay: Induction of Ca2+ release in human Jurkat T cells at 10 to 30 uM using fluo-3 dye by spectrofluorometry analysis
Jurkat [3] = assay: Inhibition of cADPR-induced Ca2+ release in human Jurkat T cells using fluo-3 dye by spectrofluorometry analysis
Jurkat [4] = assay: Induction of Ca2+ release in human Jurkat T cells at 100 to 300 uM using fluo-3 dye by spectrofluorometry analysis

IC50 (Jurkat [1]): 3 µM
IC50 (Jurkat [3]): 30 µM
Compound: O=P1(O)OC[C@H]2O[C@H]([C@H](O)[C@@H]2O)n2cnc3c(ncn3[C@@H]3O[C@H](COP(=O)(O)O1)[C@@H](O)[C@H]3O)c2=S
inhibition (Jurkat [1]): Dose-dependent effect
Activity (Jurkat [2]): inactive
inhibition (Jurkat [3]): Dose-dependent effect
Activity (Jurkat [4]): Active
